Data as given in PMC2859832 (Journal of medicinal chemistry, 2009).
pIC50: −log10 of the molar value. Where two headings read alike, the source gives them in different places. Starred links: 1 amine or outer side, 2 acyl side, 3 side chain; linkers in the order of their positions; H or OH if unused. Non-standard residues stand in square brackets, D forms with d. *: point of attachment. mPro = cis-3,4-methanoproline, O=C([C@@H]1[C@@H]2C[C@@H]2CN1[*:1])[*:2]; pY = N[C@@H](Cc1ccc(OP(=O)(O)O)cc1)C(=O)O; Hydrocinnamoyl = O=C(CCc1ccccc1)*; NHBn = c1ccc(CN*)cc1

How the values were obtained:
SH2 domain of Stat3 [1] = target: T1, SH2 domain of Stat3 (Homo sapiens, UniProt P40763); experiment: fluorescence polarization; format: binding; details: for fold lower affinity than the unsubstituted methyl group: relative to 4-methyl Aba peptide (17)
SH2 domain of Stat3 [2] = target: T1, SH2 domain of Stat3; details: FP assay; ref [8]; cited from earlier work

T1 sequence (P40763 whole entry, the tested form may be a part): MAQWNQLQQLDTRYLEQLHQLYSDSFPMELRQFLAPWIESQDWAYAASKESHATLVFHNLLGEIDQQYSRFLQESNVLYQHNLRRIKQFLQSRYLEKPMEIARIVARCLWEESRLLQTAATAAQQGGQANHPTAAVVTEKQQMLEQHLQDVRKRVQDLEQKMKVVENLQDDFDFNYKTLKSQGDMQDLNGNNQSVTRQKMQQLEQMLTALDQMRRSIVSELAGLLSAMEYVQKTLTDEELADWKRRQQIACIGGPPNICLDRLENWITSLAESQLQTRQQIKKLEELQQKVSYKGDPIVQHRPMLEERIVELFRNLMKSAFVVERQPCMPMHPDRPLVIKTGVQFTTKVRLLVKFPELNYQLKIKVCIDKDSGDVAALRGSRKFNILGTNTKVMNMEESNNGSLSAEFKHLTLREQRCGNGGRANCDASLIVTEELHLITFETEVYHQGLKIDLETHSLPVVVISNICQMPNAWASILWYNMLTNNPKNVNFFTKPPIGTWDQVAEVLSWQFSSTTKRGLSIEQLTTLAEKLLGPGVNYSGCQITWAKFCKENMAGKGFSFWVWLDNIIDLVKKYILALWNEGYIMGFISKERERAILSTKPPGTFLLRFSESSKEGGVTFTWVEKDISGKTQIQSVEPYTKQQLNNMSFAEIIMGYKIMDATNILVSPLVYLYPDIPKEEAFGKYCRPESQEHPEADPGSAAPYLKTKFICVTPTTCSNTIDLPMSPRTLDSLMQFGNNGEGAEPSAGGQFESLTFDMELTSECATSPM

For `CC(C)C[C@H](NC(=O)/C=C/c1ccc(OP(=O)(O)O)cc1)C(=O)N1CCC[C@H]1C(=O)N[C@@H](CCC(N)=O)CN(Cc1ccccc1)Cc1ccccc1` [Peptide 29], the “fold lower affinity than the unsubstituted methyl group” value (SH2 domain of Stat3 [1]) was 7 fold.
For `CC(C)C[C@H](NC(=O)/C=C/c1ccc(OP(=O)(O)O)cc1)C(=O)N1CCC[C@H]1C(=O)N[C@H](CN)CCC(N)=O` [Peptide 30], the “fold lower affinity than the unsubstituted methyl group” value (SH2 domain of Stat3 [1]) was 10 fold.
For `CC(C)C[C@H](NC(=O)/C=C/c1ccc(OP(=O)(O)O)cc1)C(=O)N1CCC[C@H]1C(=O)N[C@@H](COC(N)=O)[C@H](C)OCc1ccccc1` [Peptide 37], the pIC50 (SH2 domain of Stat3 [1]) was 5.16.
In the case of `CC(C)C[C@H](NC(=O)/C=C/c1ccc(OP(=O)(O)O)cc1)C(=O)N1CCC[C@H]1C(=O)N[C@H](C)CNC(N)=O` [Peptide 39], the “fold loss in activity on addition of a methyl group” value (SH2 domain of Stat3 [1]; relative to 2-aminoethylurea peptide 38) was 10 fold.
With `CC(C)C[C@H](NC(=O)/C=C/c1ccc(OP(=O)(O)O)cc1)C(=O)N1C[C@H]2C[C@H]2[C@H]1C(=O)N[C@@H](CCC(N)=O)C(=O)NCc1ccccc1` [Peptide 40, pCinn-Leu-cis-3,4-methanoPro-Gln-NHBn] the “fold increase in affinity on incorporation of cis-3,4-methanoPro” value (SH2 domain of Stat3 [1]; relative to peptide 2) was 2 fold.
For “hydrocinnamoyl-pTyr-Leu-mPro-Gln-NHBn (Hydrocinnamoyl-[pY]L[mPro]Q-NHBn; SMILES CC(C)C[C@H](NC(=O)[C@H](Cc1ccc(OP(=O)(O)O)cc1)NC(=O)CCc1ccccc1)C(=O)N1C[C@H]2C[C@H]2[C@H]1C(=O)N[C@@H](CCC(N)=O)C(=O)NCc1ccccc1)”, the pIC50 (SH2 domain of Stat3 [2]) is given as 6.90.
